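Each compound was tested at five concentrations against cells in 96-well plates for 48 hours. GI50: concentration for 50% inhibition of growth. TGI: total growth inhibition.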

Assay in all cases: NCI tumour cell line growth inhibition, 48 h
The test system of assay [1] is CAKI-1 renal.
Assay [2] relates to HCT-116 colon.
For assay [3], the system named is HCT-15 colon.
Assay [4] has as its system HL-60(TB) leukemia.
Assay [5] concerns HOP-62 NSCLC.
In assay [6] the test system is K-562 leukemia.
Assay [7] deals with MOLT-4 leukemia.
Assay [8] concerns OVCAR-5 ovarian.
In assay [9] the test system is T-47D breast.
The subject of assay [10] is TK-10 renal.

Consider `COc1cc(C(=O)O[C@H](C(=O)NCCNC(=O)[C@@H](OC(=O)c2cc(OC)cc3c(C)cccc23)[C@]2(C)CO2)[C@]2(C)CO2)c2cccc(C)c2c1`, for which the GI50 in [1] was 0.0563 µM; in [2] it was below 0.0285 µM; in [3], 0.179 µM; in [4] it was below 0.01 µM; in assay [5], 0.16 µM; in assay [6], below 0.0193 µM. Moreover, the GI50 in assay [7] is below 0.01 µM; in assay [8], 0.381 µM; in [9], 0.417 µM; in [10], 0.475 µM. Also, the TGI in assay [1] is 0.252 µM; in assay [2], 0.298 µM; in [3] it was 1.33 µM; in [5], 0.919 µM; in [6], 15.3 µM; in assay [7] it was above 100 µM. For the same compound, the TGI is 2.08 µM in assay [8], 3.48 µM in assay [9] and 1.9 µM in [10].

Turning to `NNC(=O)Cc1cccnc1`, the TGI in assay [1], in assay [2], in assay [3], in assay [4], in assay [5] and in [6] was above 100 µM each time. For the same compound, the TGI in assay [7], in [8], in assay [9] and in [10] was above 100 µM each time.

Consider `O=c1[nH]nc(-c2ccc([N+](=O)[O-])cc2)n1/N=C/c1ccc([N+](=O)[O-])cc1`, for which the TGI in [1], in assay [2], in [3], in assay [4], in assay [5] and in [6] was above 100 µM each time. In addition, the TGI in assay [7], in [8], in assay [9] and in assay [10] was above 100 µM throughout.

For `COc1ccc(-c2cc(C3CC3)nc(SCC(=O)O)c2C#N)cc1`, the TGI in assay [1], in [2], in assay [3], in [4], in [5] and in assay [6] was above 100 µM throughout. The TGI in [7], in assay [8], in assay [9] and in assay [10] was above 100 µM each time.

Regarding `Cc1c(C)c2c(c(N)c1C#N)C(=O)N(OS(=O)(=O)c1ccccc1)C2=O`, the TGI was 51 µM in assay [1]; 68.1 µM in assay [2]; 46 µM in [3]; above 100 µM in [4]; 43.4 µM in assay [6]; 87 µM in assay [7]. The TGI was above 100 µM in assay [8], 20 µM in assay [9] and 37.2 µM in assay [10].

On to `CCOC(=O)c1[nH]cnc1/N=N/N(C)N`, for which the TGI is 61.2 µM in assay [1]; above 100 µM in assay [2]; above 100 µM in assay [3]; 68.6 µM in assay [4]; above 100 µM in assay [5]; above 100 µM in assay [7]. Further, the TGI in assay [8], in assay [9] and in [10] was above 100 µM each time.

On to `O=C(O)CS(=O)c1ccc2c3c(cccc13)C(=O)c1ccccc1-2` (configuration not stated), for which the TGI in [1], in assay [2], in assay [3], in assay [4], in assay [5] and in assay [6] was above 100 µM each time. Besides, the TGI in [8], in [9] and in [10] was above 100 µM each time.

As for `Cc1ccc2ccc(=O)oc2c1`, the TGI in assay [1], in [2], in assay [4], in [5], in assay [6] and in [7] was above 100 µM throughout. The TGI in assay [8], in assay [9] and in [10] was above 100 µM each time.

`CN(C)c1ccc(/C=N/n2c(-c3ccccc3)nc3ccccc3c2=O)cc1`: the TGI in assay [1], in [2], in assay [3], in assay [4], in assay [5] and in assay [7] was above 100 µM throughout. The TGI in assay [8], in assay [9] and in assay [10] was above 100 µM in each case.

In the case of `Cc1c(C#N)c2nnn(-c3ccc([N+](=O)[O-])cc3)c(=O)n2c1-c1ccccc1`, the TGI in assay [1] came out at 52.2 µM; in assay [2], 19 µM; in assay [3], 24.4 µM; in [4], 60.3 µM; in assay [5] it was 19.8 µM; in [6], 30.6 µM. For the same compound, the TGI in [8] was 40.1 µM; in assay [9], 14.3 µM; in [10], above 100 µM.

For the compound `OCc1c2c(cc3c1CC1(C3)Cc3cc4c(c(CO)c3C1)CCC4)CCC2`, the TGI in assay [2] was determined as 26.4 µM; in [3], 34.6 µM; in assay [4], 18.4 µM; in assay [5] it was 29.6 µM; in [6] it was 21.9 µM; in [7], 28.3 µM. Besides, the values for the TGI in assay [8], in assay [9] and in assay [10] were 34.6 µM, 31 µM and 36.2 µM, respectively.

In the case of `COc1cc2c(cc1OC)C1=Cc3ccc(OC)c(OC)c3C(C#N)N1CC2` (configuration not stated), the TGI in assay [1], in assay [2], in [3], in assay [4], in [5] and in [7] was above 100 µM in each case. For the same compound, the TGI is above 100 µM in [8], 40.4 µM in assay [9] and above 100 µM in assay [10].

With `CC(C)=NNc1cnnc2ccc([N+](=O)[O-])cc12`, the TGI in assay [1] was above 100 µM; in [2] it was above 100 µM; in assay [3] it was above 100 µM; in [4], 43.2 µM; in assay [7] it was above 100 µM; in assay [8], above 100 µM. Moreover, the TGI in assay [9] is above 100 µM.

With `COC(=O)c1c(O)ccc2c1c1c(n2Cc2ccc(OC)cc2)C(=O)c2ccccc2C1=O`, the TGI in assay [1] was 86.4 µM; in [2], 19.7 µM; in assay [3], 16.7 µM; in [4], 12.1 µM; in [5], 33.2 µM; in assay [6] it was 20 µM. The TGI was 51.7 µM in assay [8], 46.1 µM in [9] and above 100 µM in assay [10].

Source of the values: PubChem BioAssay (NCI).
